Test results from US20250276980A1, “SALTS OF A HETEROCYCLIC COMPOUND AND CRYSTALLINE FORMS, PROCESSES FOR PREPARING, THERAPEUTIC USES, AND PHARMACEUTICAL COMPOSITIONS THEREOF” (Sunovion Pharmaceuticals Inc., priority 2020, published 2025).
“Also recorded” adds a separate entry of the source. Like-named read-outs stand apart in the source and are kept apart here. One block for each compound: values may come before it.

Columns and labels:
Type in all cases: physicochemical
[1] = Dynamic vapor sorption (DVS) moisture sorption isotherm, Hiden IGA-sorp; details: for weight gain when humidity increased from 0% RH to 95% RH: 25° C., 0% RH up to 95% RH
Procedure: (§1) DVS moisture sorption isotherms were generated using a Hiden Analytical IGA-sorp moisture sorption analyzer. Samples were run as received without pre-analysis drying. Each sample was equilibrated between about 30 and 120 minutes at each relative humidity (RH) step. Temperature was fixed at about 25° C. and the relative humidity steps (0 to 95% RH) were in 5-10% increments. Sample sizes ranged from 3 to 30 mg. After DVS measurement, XRPD was measured in order to check the solid form. Dynamic Vapor sorption (DVS) moisture sorption isotherms were generated using IGA-sorp moisture sorption analyzer (Hiden Analytical). Sample measurements were run without drying before analyses. XRPD was measured in order to check any changes of the solid form after the moisture sorption/desorption. The measurement condition is shown below: • Time at each RH steps: From 30 to 120 minutes • Relative humidity steps: 5 or 10% steps • Temperature: 25° C.

[2] = Thermogravimetric analysis (TGA); details: for TG weight loss: from 70° C., hydrochloride
Procedure: TGA analyses were performed using a TA Instruments TGA Q500 thermogravimetric analyzer. Each sample was analyzed on a platinum pan, heated under a nitrogen purge at a rate of 10° C./min, from room temperature to 250° C. or 300° C.
Thermo-Gravimetric Analyzer (TGA) analyses were performed using TGA Q500 thermogravimetric analyzer (TA Instruments). Each sample was analyzed on a platinum pan. The measurement condition is shown below: • Atmosphere: Nitrogen • Elevated temperature rate: 10° C./min • Temperature range: From room temperature to 250 or 300° C.

[3] = Solubility of Compound 1 Tosylate in solvents
Procedure: Considering the formation of the genotoxic impurities with alcohol, water was selected as the solvent and acetone as the anti-solvent. The solubility in the water-acetone binary solvent system indicates the feasibility for crystallization in this solvent system. Further solubility was also measured to help define the operation conditions.

[4] = Differential scanning calorimetry (DSC); details: sealed pan, 10° C./min
Procedure: DSC chart was obtained using a TA Instruments DSC Q1000 differential scanning calorimeter. Each sample was analyzed in a crimped pan with a pinhole, heated under a nitrogen purge at a rate of 10° C./min, from 10° C. to 250° C. or 300° C.
Differential Scanning Calorimeter (DSC) chart was obtained by DSC Q1000 differential scanning calorimeter (TA Instruments). Each sample was analyzed in a crimped pan with a pinhole. The measurement condition is shown below: • Atmosphere: Nitrogen • Elevated temperature rate: 10° C./min • Temperature range: From 10° C. to 250 or 300° C.
All DSC analyses were performed using TA Instruments Q100 differential scanning calorimeter. Lots 1-3 were analyzed in a sealed pan. Each sample was heated under a 50 mL/min nitrogen purge at a heating rate of 10° C./min, from a starting temperature of 25° C. up to a final temperature of 300° C. Sample size ranged from […].

[5] = Temperature controlled XRPD (crystal form stability on heating); details: up to melting
Procedure: Temperature controlled XRPD was measured by the X'pert-MPD with an Anton Paar TCU 100 Temperature Control Unit. Sample was measured from 30° C. to 250° C. or 270° C. with 10° C. increments. Measurement conditions were as follows: range: 4-30°, step: 0.017°, time per step: 100 s.
FT-Raman, XRPD, DSC, TGA, and DVS instruments and techniques were similar to those in Example 3. Temperature controlled XRPD was measured by X'pert-Pro MIPD (Spectris) with TCU 100 Temperature Control Unit (Anton Paar). The temperature of the sampling stage was increased step by step as programmed and XRPD patterns of sample were measured at each step. The measurement condition is shown below: • Range angle: From 4 to 30° • Step size: 0.017° • Time per step: 100 s

[6] = Storage at 75% RH (saturated NaCl), solid form checked by Raman/XRPD; details: overnight / 1 day
Procedure: Fumaric acid salt Form FB has about 3.8% weight loss from low temperature with TGA measurement. From DVS result, there is about 5% weight gain at over 75% RH, so polymorphic form seems to be changed. […] Therefore, Form FA seems to be di-hydrate. Form FB seems to be mono-hydrate. The thermal behavior of Form FA is a little different from that of Form FB. Form FA generated the experiment described above using about 28 mg of fumaric acid and about 2 mL of THE seems to be easy to be dehydrated. It can be affected by vacuum dry. When Form FA and Form FB are placed under dry condition or heated, anhydrous form can be obtained. But they are quickly transformed to be hydrous form by obtaining water in the air.
It was confirmed that Form HC was reproducible even in the scale up study. […] The NMR spectrum shown indicated no presence of organic solvents.

[7] = XRPD before and after DVS measurement (moisture sorption/desorption)
Procedure: as §1

[8] = Polymorph study of Compound 1 Hydrochloride (solvent, slurry screening, scale up; FT-Raman/XRPD); details: on filtration/drying, humidity or room temperature
Procedure: FT-Raman analyses were performed by using MultiRAM (Bruker Optics). Each suspension or dry powder sample was measured from out of glass vial. The measurement condition is shown below: • Excitation wavelength: 1064 nm • Laser power: 500 mW • Wavenumber: 4 cm-1 • Sample scan: 128 times
X-ray Powder Diffraction (XRPD) spectra were obtained by X′ pert Pro MPD (Spectris). X-rays was generated with Cu Kα radiation. The powder samples were put on the reflection free sample plate. The XRPD patterns were analyzed by HighScorePlus. The measurement condition is shown below: • Range angle: From 4 to 30°, to 40° and to 65° (20) • Step size: 0.017° • Time per step: 100 s
Compound 1 Hydrochloride, Form HA (about 5 mg) was put into each small glass vial and various types of solvents were added until the sample was dissolved at about 90° C. or boiling point. Maximum volume of solvent was about 500 μL. After the solution and suspension was heated for a few hours, the heater was switched off and the sample was cooled. The vials were preserved at about 5° C. Crystals obtained in the vials were measured directly by FT-Raman. After solvent was evaporated by opening the cap of vial, crystals obtained were also measured directly by FT-Raman. Solids were then collected and evaluated by XRPD and thermal analysis as needed.
Compound 1 Hydrochloride, Form HA (about 10 mg) was put into each small glass vial and various types of organic solvents mixed with water were added. After each sample was suspended at room temperature for about 3 days, suspended solids in the vials were measured directly by FT-Raman. Furthermore, each sample was suspended at about 50° C. for about 3 days and these were measured directly by FT-Raman. Solids were then collected and evaluated by XRPD, thermal analysis and DVS as needed.
Compound 1 Hydrochloride, Form HA (about 100 mg) was put into a glass vial and about 1 mL of EtOH mixed with water (10:1) was added. […] It was analyzed by XRPD, thermal analysis, ^1H-NMR, elemental analysis and ion-chromatography.

[9] = Lot 1, recrystallized from water/acetone
[10] = Lot 2, recrystallized from water/acetone
[11] = Lot 3, recrystallized from water/acetone

Structure (SMILES): CNC[C@@H]1OCCn2nc3ccccc3c21.O=P(O)(O)O [Compound 1 Phosphate, (S)-1-(3,4-dihydro-1H-[1,4]oxazino[4,3-b]indazol-1-yl)-N-methylmethanamine phosphate]
- TGA weight loss (in words) ([2]; listed as phosphate salt, phosphate): large amount of weight loss at low temperature
- TGA weight loss (in words) ([2]; phosphate): large amount of weight loss from low temperature

Structure (SMILES): CNC[C@@H]1OCCn2nc3ccccc3c21.O=C(O)/C=C/C(=O)O [Form FB, (S)-1-(3,4-dihydro-1H-[1,4]oxazino[4,3-b]indazol-1-yl)-N-methylmethanamine fumarate]
- weight gain at over 75% RH ([1]; over 75% RH): about 5%
- TGA weight loss ([2]; from low temperature): about 3.8%
- change of crystal form on storage at high humidity [6]: Form FA was observed

Structure (SMILES): CNC[C@@H]1OCCn2nc3ccccc3c21.Cl [Form HB, (S)-1-(3,4-dihydro-1H-[1,4]oxazino[4,3-b]indazol-1-yl)-N-methylmethanamine hydrochloride]
- stability of the crystal form [8]: transformed to Form HC or Form HA when it was filtrated and dried; also recorded: Not stable

Structure (SMILES): CNC[C@@H]1OCCn2nc3ccccc3c21.Cl [Form HD, (S)-1-(3,4-dihydro-1H-[1,4]oxazino[4,3-b]indazol-1-yl)-N-methylmethanamine hydrochloride]
- stability of the crystal form [8]: Transformed to Form C at room temperature

Structure (SMILES): CNC[C@@H]1OCCn2nc3ccccc3c21.Cc1ccc(S(=O)(=O)O)cc1 [Form TA, (S)-1-(3,4-dihydro-1H-[1,4]oxazino[4,3-b]indazol-1-yl)-N-methylmethanamine tosylate]
- weight gain when humidity increased from 0% RH to 95% RH [1]: ~1%
- hygroscopicity (in words) ([1]; tosylate): less hygroscopicity; also recorded: good hygroscopicity behavior; also recorded: non-hygroscopicity
- TGA weight loss (in words) [2]: no weight loss until melting
- transformation to another polymorph on heating ([5]; tosylate): not transformed to any other polymorph; also recorded: not transformed to another form until the melting point
- change of crystal form after DVS measurement [7]: no changes of the crystal form

Further lines, with some results ahead:

- weight gain at 95% RH ([1]; about 25° C.): about 2%
- TGA weight loss (in words) [2]: no weight loss until melting
Structure (SMILES): CNC[C@@H]1OCCn2nc3ccccc3c21.O=S(=O)(O)c1ccccc1 [Compound 1 Besylate, (S)-1-(3,4-dihydro-1H-[1,4]oxazino[4,3-b]indazol-1-yl)-N-methylmethanamine benzenesulfonate]
- hygroscopicity (in words) ([1]; listed as besylate, benzenesulfonate): less hygroscopicity; also recorded: low hygroscopicity

- hygroscopicity (in words) [1]: no hygroscopicity
Structure (SMILES): CNC[C@@H]1OCCn2nc3ccccc3c21.O=C(O)/C=C/C(=O)O [Compound 1 Fumarate, (S)-1-(3,4-dihydro-1H-[1,4]oxazino[4,3-b]indazol-1-yl)-N-methylmethanamine fumarate]

- weight gain at 95% RH ([1]; about 25° C.): about 1%
- hygroscopicity (in words) ([1]; listed as Tosylate, tosylate): less hygroscopicity
- hygroscopicity (in words) ([1]; listed as tosylate, tosylate): low hygroscopicity
- solubility (in words) [3]: decent solubility in methanol and water
- DSC Onset [4, 9]: 240.5 °C
- DSC Peak [4, 9]: 241.9 °C
- DSC ΔHf [4, 9]: 122 J/g
- DSC Onset [4, 10]: 240.2 °C
- DSC Peak [4, 10]: 241.7 °C
- DSC ΔHf [4, 10]: 113 J/g
- DSC Onset [4, 11]: 239.7 °C
- DSC Peak [4, 11]: 241.4 °C
- DSC ΔHf [4, 11]: 123 J/g
Structure (SMILES): CNC[C@@H]1OCCn2nc3ccccc3c21.Cc1ccc(S(=O)(=O)O)cc1 [Compound 1 Tosylate, (S)-1-(3,4-dihydro-1H-[1,4]oxazino[4,3-b]indazol-1-yl)-N-methylmethanamine tosylate]

- weight gain at 90% RH ([1]; another batch of Form BA): about 1%
- weight gain at 90% RH ([1]; one batch of Form BA): about 2%
- weight gain at 95% RH ([1]; another batch of Form BA): about 2%
- weight gain at 95% RH ([1]; one batch of Form BA): about 8%
- transformation to another polymorph on heating [5]: not transformed to any other polymorph
Structure (SMILES): CNC[C@@H]1OCCn2nc3ccccc3c21.O=S(=O)(O)c1ccccc1 [Form BA, (S)-1-(3,4-dihydro-1H-[1,4]oxazino[4,3-b]indazol-1-yl)-N-methylmethanamine benzenesulfonate]
- hygroscopicity (in words) ([1]; benzenesulfonate): less hygroscopicity; also recorded: good hygroscopicity behavior

- transformation to another polymorph on heating [5]: not transformed to any other polymorph
Structure (SMILES): CNC[C@@H]1OCCn2nc3ccccc3c21.O=C(O)/C=C/C(=O)O [Form FA, (S)-1-(3,4-dihydro-1H-[1,4]oxazino[4,3-b]indazol-1-yl)-N-methylmethanamine fumarate]

- weight gain at 95% RH ([1]; about 25° C.): over 100%
- hygroscopicity (in words) ([1]; hydrochloride): Highly hygroscopic
- TG weight loss [2]: over 17.1%
Structure (SMILES): CNC[C@@H]1OCCn2nc3ccccc3c21.Cl [Form HA, (S)-1-(3,4-dihydro-1H-[1,4]oxazino[4,3-b]indazol-1-yl)-N-methylmethanamine hydrochloride]
- change of crystal form after DVS measurement ([7]; hydrochloride): transformed to Form HC mixed with an unidentified polymorph

- weight gain when humidity increased from 0% RH to 95% RH [1]: 9.3%
- weight gain between 60% RH and 70% RH ([1]; between 60% RH and 70% RH): 6.5%
- hygroscopicity (in words) ([1]; hydrochloride): hygroscopic
- TG weight loss [2]: 6.6%
- change of crystal form after DVS measurement ([7]; hydrochloride): basically stable
- change of crystal form on storage at high humidity [6]: transformed to Form HD
Structure (SMILES): CNC[C@@H]1OCCn2nc3ccccc3c21.Cl [Form HC, (S)-1-(3,4-dihydro-1H-[1,4]oxazino[4,3-b]indazol-1-yl)-N-methylmethanamine hydrochloride]
- stability of the crystal form [8]: Transformed to Form D at the humidity level of more than 70% RH
